Results from patent US8143259B2, “Cold menthol receptor antagonists” (Janssen Pharmaceutica, NV, priority 2008, dated 2012).
Where “and” joins values, the source holds several entries; their conditions need not be identical. Identical values can stand only once. Values belong to the molecule of their own block, whether it stands above or below them.

Molecular target: T1, canine TRPM8 (Canis lupus familiaris, UniProt Q1A7N1)
T1 construct: expressed in transfected cells
Test: In Vitro Canine TRPM8 Functional Assay (Ca2+ fluorescence, icilin activation)
Type: cell-based
Conditions: for % Inh @ 0.5 μM: 0.5 μM compound; for IC50: HEK293 cells stably expressing canine TRPM8, icilin activation, Ca2+ fluorescence; for inhibition at 0.5 µM: HEK293, 0.5 μM compound; for % Inh @ 0.2 μM: 0.2 μM compound; for inhibition at 0.2 µM: HEK293, 0.2 μM compound
Procedure: The functional activity of compounds of the formula (I) was determined by measuring changes in intracellular calcium concentration using a Ca^2+-sensitive fluorescent dye. The changes in fluorescent signal were monitored by a fluorescence plate reader, either a FLIPR™ (Molecular Devices) or FDSS (Hamamatsu). Increases in intracellular Ca^2+ concentration were readily detected upon activation with icilin.
HEK293 cells stably expressing canine TRPM8 were routinely grown as monolayers in Dulbecco's minimum essential medium supplemented with 10% FBS, 2 mM L-glutamine, 100 units/mL penicillin, 100 ug/mL streptomycin and 400 μg/mL G418. Cells were maintained in 5% CO2 at 37° C. At 24 hrs prior to assay, cells were seeded in black wall, clear-base poly-D-lysine coated 384-well plates (BD Biosciences, NJ, USA) at a density of 5,000 cells per well in culture medium and grown overnight in 5% CO2 at 37° C. On assay day, growth media was removed and cells were loaded with Calcium 3 Dye (Molecular Devices) for 35 min at 37° C., under 5% CO2 and then for 25 min at room temperature and atmosphere. Subsequently, cells were tested for agonist-induced increases in intracellular Ca^2+ levels using FLIPR™ or FDSS. Cells were challenged with compounds of the formula (I) (at varying concentrations) and intracellular Ca^2+ was measured for 5 min prior to the addition of icilin to all wells to achieve a final concentration that produces approximately an 80% maximal response.
Maximal fluorescence intensity (FI) achieved upon addition of icilin was exported from the FLIPR or FDSS software and further analyzed using GraphPad Prism 3.02 (Graph Pad Software Inc., CA, U.S.A.). Basal FI was subtracted prior to normalizing data to percent of maximal response. Curves were generated using the average of quadruplicate wells for each data point, were analyzed using nonlinear regression of either sigmoidal dose response or sigmoidal dose response (variable slope).

[1] = canine TRPM8 HEK293, icilin, 0.5 µM
[2] = canine TRPM8 HEK293, icilin, 0.2 µM

T1 sequence (Q1A7N1 1-1104): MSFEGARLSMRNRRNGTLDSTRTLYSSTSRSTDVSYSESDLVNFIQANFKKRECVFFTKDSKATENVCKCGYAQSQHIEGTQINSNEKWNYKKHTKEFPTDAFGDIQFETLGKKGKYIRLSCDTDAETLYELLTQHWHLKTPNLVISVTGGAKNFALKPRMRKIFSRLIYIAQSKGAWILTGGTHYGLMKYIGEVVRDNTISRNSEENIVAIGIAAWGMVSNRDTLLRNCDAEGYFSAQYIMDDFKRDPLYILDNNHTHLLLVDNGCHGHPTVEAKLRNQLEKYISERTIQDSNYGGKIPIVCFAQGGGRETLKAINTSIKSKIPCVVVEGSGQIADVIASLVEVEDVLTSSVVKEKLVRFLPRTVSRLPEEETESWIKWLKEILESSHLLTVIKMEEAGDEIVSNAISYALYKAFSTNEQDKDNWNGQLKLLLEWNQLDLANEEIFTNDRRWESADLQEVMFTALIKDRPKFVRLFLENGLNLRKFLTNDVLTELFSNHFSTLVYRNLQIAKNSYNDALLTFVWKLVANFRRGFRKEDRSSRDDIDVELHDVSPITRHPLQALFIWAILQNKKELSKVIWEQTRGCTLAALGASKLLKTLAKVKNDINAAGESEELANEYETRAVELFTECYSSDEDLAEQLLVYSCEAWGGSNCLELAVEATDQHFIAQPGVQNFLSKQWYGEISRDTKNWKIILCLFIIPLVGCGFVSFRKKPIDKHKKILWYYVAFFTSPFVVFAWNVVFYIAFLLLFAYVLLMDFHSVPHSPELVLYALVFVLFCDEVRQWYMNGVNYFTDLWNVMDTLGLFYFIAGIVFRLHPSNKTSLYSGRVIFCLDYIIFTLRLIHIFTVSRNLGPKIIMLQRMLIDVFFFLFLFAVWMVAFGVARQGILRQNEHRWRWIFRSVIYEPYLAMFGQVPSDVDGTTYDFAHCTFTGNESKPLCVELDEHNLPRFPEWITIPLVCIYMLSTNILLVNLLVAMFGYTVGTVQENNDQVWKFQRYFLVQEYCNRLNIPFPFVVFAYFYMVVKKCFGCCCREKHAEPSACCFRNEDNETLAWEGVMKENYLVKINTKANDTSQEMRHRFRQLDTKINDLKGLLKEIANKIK

Molecule: 1-[2-(2-Chloro-phenyl)-pyrrolidin-1-yl]-3-phenylamino-2-(4-trifluoromethyl-phenyl)-propan-1-one [Cpd 83]
% Inh @ 0.5 μM (canine TRPM8 HEK293, icilin): 96%
IC50: 248 nM

% Inh @ 1 μM (1 μM compound, canine TRPM8 HEK293, icilin): 45.171%
Molecule: CC(C)(C)c1ccc(C(Nc2ccccc2)C(=O)N2CCCC2Cc2ccccc2Cl)cc1 (mixture of isomers) [Cpd 6]

% Inh @ 0.5 μM [1]: 98%
IC50: 162 nM
Molecule: O=C(C(CNc1ccccc1)c1ccc(C(F)(F)F)cc1)N1CCCC1c1ccccc1 (mixture of isomers) [Cpd 94]

% Inh @ 0.5 μM [1]: 67%
Molecule: O=C(C(CNc1ccccc1)c1ccc(C(F)(F)F)cc1)N1CCCC1c1ccccc1 (mixture of isomers) [Cpd 95]

% Inh @ 0.5 μM [1]: 103%
IC50: 6.9 nM
Molecule: O=C(C(Nc1ccccc1F)c1ccc(C(F)(F)F)cc1)N1CCCC1c1ccccc1F (mixture of isomers) [Cpd 131]

% Inh @ 0.5 μM [1]: 99.694%
IC50: 44 nM
Molecule: O=C(C(Nc1ccccc1F)c1ccc(C(F)(F)F)cc1)N1CCCC1c1ccccc1F (mixture of isomers) [Cpd 153]

inhibition at 0.5 µM (canine TRPM8 HEK293, icilin): 92%
IC50: 9 nM
Molecule: O=C(C(Nc1ccccc1F)c1ccc(Cl)cc1)N1CCC[C@H]1c1ccccc1F (mixture of isomers) [Cpd 156]

% Inh @ 0.2 μM (canine TRPM8 HEK293, icilin): 63%
Molecule: Cc1c(C(Cc2ccccc2F)C(=O)N2CCCC2c2ccccc2F)sc2ccccc12 (mixture of isomers) [Cpd 177]

% Inh @ 0.2 μM (canine TRPM8 HEK293, icilin): 97%
IC50: 9 nM
Molecule: O=C(C(Nc1ccccc1F)c1ccc(Br)cc1)N1CCCC1c1ccccc1F (mixture of isomers) [Cpd 180]

inhibition at 0.2 µM (canine TRPM8 HEK293, icilin): 102%
IC50: 13 nM
Molecule: CCOC(=O)c1ccc(C(Nc2ccccc2F)C(=O)N2CCC[C@H]2c2ccccc2F)cc1 (mixture of isomers) [Cpd 182]

inhibition at 0.2 µM (canine TRPM8 HEK293, icilin): 98%
IC50: 18 nM
Molecule: O=C(C(Nc1ccccc1F)c1ccc(C(F)(F)F)cc1)N1CCC[C@H]1c1cccc(F)c1 (mixture of isomers) [Cpd 186]

% Inh @ 0.2 μM (canine TRPM8 HEK293, icilin): 102%
IC50: 22 nM
Molecule: COC(=O)c1cccc(C2CCCN2C(=O)C(Nc2ccccc2F)c2ccc(C(F)(F)F)cc2)c1 (mixture of isomers) [Cpd 221]

% Inh @ 0.2 μM (canine TRPM8 HEK293, icilin): 97%
IC50: 40 nM
Molecule: O=C(O)c1cccc(C2CCCN2C(=O)C(Nc2ccccc2F)c2ccc(C(F)(F)F)cc2)c1 (mixture of isomers) [Cpd 223]

% Inh @ 0.2 μM (canine TRPM8 HEK293, icilin): 55%
Molecule: CS(=O)(=O)c1ccc(C(Nc2ccccc2F)C(=O)N2CCCC2c2ccccc2F)cc1 (mixture of isomers) [Cpd 224]

IC50: 112 nM
Molecule: O=C(C(Nc1ccccc1F)c1ccc(Br)cc1)N1[C@H](CO)CC[C@@H]1c1ccccc1 (mixture of isomers) [Cpd 238]

% Inh @ 0.2 μM (canine TRPM8 HEK293, icilin): 98%
IC50: 2.6 nM
Molecule: O=C(C(Nc1ccccc1F)c1cc2ccccc2s1)N1CCCC1c1ccccc1F (mixture of isomers) [Cpd 245]

% Inh @ 0.2 μM (canine TRPM8 HEK293, icilin): 15%
Molecule: CNC(=O)c1ccc(C(Nc2c(F)cccc2F)C(=O)N2CCCC2c2ccccc2F)cc1 (mixture of isomers) [Cpd 265]

% Inh @ 0.2 μM [2]: 13% and 15%
Molecule: O=C(C(Cc1c(F)cccc1F)c1ccc(C(F)(F)F)cc1)N1CCCC1c1cccnc1 (mixture of isomers) [Cpd 268]

% Inh @ 0.2 μM (canine TRPM8 HEK293, icilin): 58%
Molecule: O=C(C(Nc1c(F)cccc1F)c1ccc(Cl)cc1)N1CCCC1c1cccnc1 (mixture of isomers) [Cpd 270]

inhibition at 0.2 µM (canine TRPM8 HEK293, icilin): 94%
IC50: 21 nM
Molecule: O=C(C(c1ccc(C(F)(F)F)cc1)N1CCc2ccccc21)N1CCC[C@H]1c1cccnc1 (mixture of isomers) [Cpd 275]

inhibition at 0.2 µM (canine TRPM8 HEK293, icilin): 96%
IC50: 14 nM
Molecule: O=C(C(Nc1ccccc1F)c1ccc2c(c1)CCO2)N1CCC[C@H]1c1ccccc1F (mixture of isomers) [Cpd 286]

inhibition at 0.2 µM (canine TRPM8 HEK293, icilin): 84%
IC50: 12 nM
Molecule: O=C(C(Nc1ccccc1F)c1ccc(-c2ccccn2)cc1)N1CCC[C@H]1c1ccccc1F (mixture of isomers) [Cpd 289]

% Inh @ 0.2 μM (canine TRPM8 HEK293, icilin): 45%
Molecule: O=C(C(c1ccc(C(F)(F)F)cc1)N1CCCc2ccccc21)N1CCCC1c1ccccc1F (mixture of isomers) [Cpd 292]

% Inh @ 0.2 μM [2]: 101% and 102%
IC50: 6 nM and 8 nM
Molecule: O=C(C(Nc1ccccc1F)c1ccc(-c2cccnc2)cc1)N1CCCC1c1ccccc1F (mixture of isomers) [Cpd 300]

% Inh @ 0.2 μM [2]: 102%
inhibition at 0.2 µM (canine TRPM8 HEK293, icilin): 101%
IC50: 7 nM
Molecule: O=C(C(Nc1ccccc1F)c1ccc(-c2ccccc2)nc1)N1CCC[C@H]1c1ccccc1F (mixture of isomers) [Cpd 306]

% Inh @ 0.2 μM (canine TRPM8 HEK293, icilin): 102%
IC50: 13 nM
Molecule: COC(=O)c1cc(C(Nc2ccccc2F)C(=O)N2CCCC2c2ccccc2F)ccc1Cl (mixture of isomers) [Cpd 309]

% Inh @ 0.2 μM (canine TRPM8 HEK293, icilin): 41%
Molecule: O=C(O)c1cccc(-c2ccc(C(Nc3ccccc3F)C(=O)N3CCCC3c3ccccc3F)cc2)c1 (mixture of isomers) [Cpd 310]

inhibition at 0.2 µM (canine TRPM8 HEK293, icilin): 101%
IC50: 5 nM
Molecule: O=C(C(Nc1ccccc1F)c1ccc(N2CCCCC2)nc1)N1CCC[C@H]1c1ccccc1F (mixture of isomers) [Cpd 334, 2-(2-Fluoro-phenylamino)-1-[(2S)-2-(2-fluoro-phenyl)-pyrrolidin-1-yl]-2-(3,4,5,6-tetrahydro-2H-[1,2′]bipyridinyl-5′-yl)-ethanone]

inhibition at 0.2 µM (canine TRPM8 HEK293, icilin): 101%
IC50: 26 nM
Molecule: COc1ccccc1[C@@H]1CCCN1C(=O)C(Nc1ccccc1F)c1ccc(N2CCCCC2)nc1 (mixture of isomers) [Cpd 335]

% Inh @ 0.2 μM (canine TRPM8 HEK293, icilin): 43%
Molecule: O=C(C(c1ccc(C(F)(F)F)cc1)N1CCCc2ccccc21)N1CCCC1c1cccnc1 (mixture of isomers) [Cpd 336]

% Inh @ 0.2 μM [2]: 91%
IC50: 56 nM
Molecule: O=C(O)c1ccc(-c2ccc(C(Nc3ccccc3F)C(=O)N3CCCC3c3ccccc3F)cc2)cc1 (mixture of isomers) [Cpd 337]

inhibition at 0.2 µM (canine TRPM8 HEK293, icilin): 99%
IC50: 40 nM
Molecule: COC(=O)c1cccc([C@@H]2CCCN2C(=O)C(Nc2ccccc2F)c2ccc(C(F)(F)F)cc2)c1 (mixture of isomers) [Cpd 347]

inhibition at 0.2 µM (canine TRPM8 HEK293, icilin): 100%
IC50: 22 nM
Molecule: CN(C)c1cccc([C@H]2CCCN2C(=O)C(Nc2ccccc2F)c2ccc(C(F)(F)F)cc2)c1 (mixture of isomers) [Cpd 348]

inhibition at 0.2 µM (canine TRPM8 HEK293, icilin): 100%
IC50: 33 nM
Molecule: O=C(O)c1cccc([C@@H]2CCCN2C(=O)C(Nc2ccccc2F)c2ccc(C(F)(F)F)cc2)c1 (mixture of isomers) [Cpd 349, 3-{(1S)-1-[2-(2-Fluoro-phenylamino)-2-(4-trifluoromethyl-phenyl)-acetyl]-pyrrolidin-2-yl}-benzoic acid]

inhibition at 0.2 µM (canine TRPM8 HEK293, icilin): 100%
IC50: 5 nM
Molecule: CC(C)(C)c1ccc(C(Nc2ccccc2F)C(=O)N2CCC[C@H]2c2ccccc2F)cn1 (mixture of isomers) [Cpd 355]

inhibition at 0.2 µM (canine TRPM8 HEK293, icilin): 100%
IC50: 8 nM
Molecule: O=C(C(Nc1ccccc1F)c1ccc(N2CCOCC2)nc1)N1CCC[C@H]1c1ccccc1F (mixture of isomers) [Cpd 358]

% Inh @ 0.5 μM (canine TRPM8 HEK293, icilin): 21.91%
Molecule: O=C(C(Nc1ccccc1)c1ccccc1Cl)N1CCCC1c1ccccc1Cl (mixture of isomers) [Cpd 362]

inhibition at 1 µM (HEK293, 1 μM compound, canine TRPM8 HEK293, icilin): 103%
IC50: 21.6 nM
Molecule: O=C(C(Nc1ccccc1)c1ccc(C(F)(F)F)cc1)N1CCCC1c1ccccc1Cl (racemic) [Cpd 16]

% Inh @ 0.5 μM (canine TRPM8 HEK293, icilin): 72.417%
Molecule: Cc1cccc(C)c1NC(C(=O)N1CCc2ccccc21)c1ccc(C(F)(F)F)cc1 (racemic) [Cpd 35]

% Inh @ 0.5 μM (canine TRPM8 HEK293, icilin): 49.878%
Molecule: O=C(C(Nc1ccccc1Cl)c1ccc(C(F)(F)F)cc1)N1CCc2ccccc21 (racemic) [Cpd 37]

% Inh @ 0.5 μM (canine TRPM8 HEK293, icilin): 63.009%
Molecule: O=C(C(Nc1cccc(Cl)c1)c1ccc(C(F)(F)F)cc1)N1CCc2ccccc21 (racemic) [Cpd 38]

% Inh @ 0.5 μM (canine TRPM8 HEK293, icilin): 73.007%
Molecule: O=C(C(Nc1ccc(Cl)cc1)c1ccc(C(F)(F)F)cc1)N1CCc2ccccc21 (racemic) [Cpd 39]

% Inh @ 0.5 μM (canine TRPM8 HEK293, icilin): 90.495%
IC50: 233 nM
Molecule: O=C(C(CNc1ccccc1)c1ccc(C(F)(F)F)cc1)N1CCc2ccccc21 (racemic) [Cpd 40]

% Inh @ 0.5 μM (canine TRPM8 HEK293, icilin): 70.995%
Molecule: O=C(C(NC1CCCCC1)c1ccc(C(F)(F)F)cc1)N1CCc2ccccc21 (racemic) [Cpd 41]

inhibition at 0.2 µM (canine TRPM8 HEK293, icilin): 89%
inhibition at 0.5 µM (canine TRPM8 HEK293, icilin): 103%
IC50: 7 nM and 12 nM and 13 nM
Molecule: O=C(C(Nc1ccccc1F)c1ccc(C(F)(F)F)cc1)N1CCCC1c1ccccc1Cl (racemic) [Cpd 68]

inhibition at 0.5 µM (canine TRPM8 HEK293, icilin): 102%
IC50: 5 nM
Molecule: O=C(C(Nc1ccccc1F)c1ccc(C(F)(F)F)cc1)N1CCCC1c1ccccc1 (racemic) [Cpd 69]

% Inh @ 0.5 μM (canine TRPM8 HEK293, icilin): 33%
Molecule: COc1ccc(C(Nc2ccccc2)C(=O)N2Cc3ccccc3C2)cc1 (racemic) [Cpd 73]
